Reference: patent US20180008587A1, “THIOHYDANTOIN ANDROGEN RECEPTOR ANTAGONISTS FOR THE TREATMENT OF CANCER” (Jaressen Pharmaceutica NV, priority 2016, published 2018)
Positions count from the first letter of the chain named.

Experiments:
Format in all cases: cell-based
[1] = target: T1, wild-type Androgen Receptor (AR-wt) (Homo sapiens, UniProt P10275); assay: LNCaP-AR-wt ANT reporter assay (ARE firefly luciferase, antagonist mode); conditions: for IC50: antagonist mode, 400 pM R-1881 challenge, −Log10(IC50 [Molar]), read-out: LNCaP-AR-wt ANT pIC50 (converted); for Emax: maximum % inhibition of R1881 control response over tested concentration range, read-out: LNCaP-AR-wt ANT MAX % Inh
T1 construct: expressed in transfected cells; host or cells: LNCaP (LNCaP AR (cs))
T1 sequence (P10275 1-920): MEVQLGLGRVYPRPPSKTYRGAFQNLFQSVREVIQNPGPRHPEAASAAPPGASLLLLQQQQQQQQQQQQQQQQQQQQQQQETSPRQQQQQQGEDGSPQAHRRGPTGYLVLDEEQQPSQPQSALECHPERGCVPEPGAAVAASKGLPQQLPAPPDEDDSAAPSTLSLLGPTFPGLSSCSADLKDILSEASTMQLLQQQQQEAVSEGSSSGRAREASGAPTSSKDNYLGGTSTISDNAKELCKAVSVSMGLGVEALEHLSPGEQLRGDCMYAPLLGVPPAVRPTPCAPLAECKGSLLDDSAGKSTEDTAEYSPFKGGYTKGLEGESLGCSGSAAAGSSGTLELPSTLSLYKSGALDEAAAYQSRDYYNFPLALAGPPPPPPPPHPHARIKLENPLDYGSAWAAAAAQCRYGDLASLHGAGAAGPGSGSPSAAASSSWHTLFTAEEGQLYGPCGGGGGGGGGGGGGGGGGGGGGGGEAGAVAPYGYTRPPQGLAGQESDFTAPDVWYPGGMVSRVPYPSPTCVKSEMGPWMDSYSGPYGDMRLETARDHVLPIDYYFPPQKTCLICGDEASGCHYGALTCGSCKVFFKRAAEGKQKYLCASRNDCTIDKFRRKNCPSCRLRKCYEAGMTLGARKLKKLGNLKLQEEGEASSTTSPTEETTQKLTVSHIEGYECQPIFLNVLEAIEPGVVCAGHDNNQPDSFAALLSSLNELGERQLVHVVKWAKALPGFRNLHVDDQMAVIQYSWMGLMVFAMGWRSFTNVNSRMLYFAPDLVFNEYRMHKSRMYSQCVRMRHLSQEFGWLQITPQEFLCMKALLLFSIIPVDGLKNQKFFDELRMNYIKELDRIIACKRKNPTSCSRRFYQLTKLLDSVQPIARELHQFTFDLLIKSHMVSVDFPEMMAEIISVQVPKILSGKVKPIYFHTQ
Summary of the method: (§1)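 LNCaP cells stably expressing wild-type or F876L AR (puromycin-selected pooled populations) were cultured in charcoal-stripped serum medium. In antagonist mode, agonist challenge was 400 pM for wild-type and 600 pM for F876L.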

[2] = target: T1, wild-type Androgen Receptor (AR-wt); assay: LNCaP-AR-wt AG reporter assay (ARE firefly luciferase, agonist mode); conditions: for EC50: agonist mode, −Log10(EC50 [Molar]), read-out: LNCaP-AR-wt AG pEC50 (converted); for Emax: maximum % stimulation (agonist response) over tested concentration range, read-out: LNCaP-AR-wt AG MAX % Stim
Summary of the method: (§2)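 Cells: stable LNCaP pools, AR-wt or AR-F876L, in charcoal-stripped serum. Agonist challenge for antagonist mode was 400 pM (WT) and 600 pM (F876L). Luminescence was measured after 20-24 h incubation.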

[3] = target: T2, F876L mutant Androgen Receptor (AR-F876L) (Homo sapiens, UniProt P10275, F877L); assay: LNCaP-AR-F876L ANT reporter assay (ARE firefly luciferase, antagonist mode); conditions: for Emax: maximum % inhibition of R1881 control response over tested concentration range, read-out: LNCaP-AR-F876L ANT MAX % Inh; for IC50: read-out: LNCaP-AR-F876L ANT pIC50 (converted)
T2 construct: expressed in transfected cells; host or cells: LNCaP (LNCaP F876L)
T2 sequence (P10275 1-920 F877L): T1 sequence (P10275 1-920) with F877L
Summary of the method: as §1

[4] = target: T2, F876L mutant Androgen Receptor (AR-F876L); assay: LNCaP-AR-F876L AG reporter assay (ARE firefly luciferase, agonist mode); conditions: for EC50: agonist mode, −Log10(EC50 [Molar]), read-out: LNCaP-AR-F876L AG pEC50 (converted); for Emax: maximum % stimulation (agonist response) over tested concentration range, read-out: LNCaP-AR-F876L AG MAX % Stim
Summary of the method: as §2

SMILES | IC50 [1] [nM] | Emax [1] [%] | EC50 [2] [nM] | Emax [2] [%] | Emax [3] [%] | IC50 [3] [nM] | EC50 [4] [nM] | Emax [4] [%]
N#Cc1ncc(N2C(=O)C3(CCC3)N(c3ccc(OC4CCNCC4)cc3)C2=S)cc1C(F)(F)F [Cpd 35, 5-[5-oxo-8-[4-(4-piperidyloxy)phenyl]-7-thioxo-6,8-diazaspiro[3.4]octan-6-yl]-3-(trifluoromethyl)pyridine-2-carbonitrile] | 240 | 97.5 | > 15100 | -0.1 | 101 | 145 | > 15100 | 0
N#Cc1ncc(N2C(=O)C3(CCC3)N(c3ccc(C(=O)NCCCO)c(F)c3)C2=S)cc1C(F)(F)F [Cpd 40, 4-[6-[6-cyano-5-(trifluoromethyl)-3-pyridyl]-5-oxo-7-thioxo-6,8-diazaspiro[3.4]octan-8-yl]-2-fluoro-N-(3-hydroxypropyl)benzamide] | 240 | 101 | > 15100 | -0.3 | 99.5 | 162 | > 15100 | 0.2
CN1CCC(Oc2ccc(N3C(=S)N(c4cnc(C#N)c(C(F)(F)F)c4)C(=O)C34CCC4)cc2)CC1 [Cpd 85, 5-[8-[4-[(1-methyl-4-piperidyl)oxy]phenyl]-5-oxo-7-thioxo-6,8-diazaspiro[3.4]octan-6-yl]-3-(trifluoromethyl)pyridine-2-carbonitrile] |  | 101 |  | 0.2 | 99.8 |  |  | 0.8
